The values below come from US6391863B1, “Use of carbohydrates for promoting skin desquamation” (L'Oreal, priority 1995, dated 2002).

In this test the test system is Banderia simplicifolia isolectin B4. The experiment in a line: Inhibition of lectin-induced haemagglutination (model of corneocyte cohesion). The test is classed as cell-based. As to conditions: rabbit erythrocytes; lectin at twice its minimum haemagglutinating concentration; carbohydrate starting solution 0.1M, successive dilutions; 30 min contact at ambient temperature. The procedure:
A test to measure the efficacy of the carbohydrates was carried out in vitro. […] The principle of the test lies in the fact that the lectin causes agglutination of the erythrocytes. The products to be tested, which are prepared at various dilutions, are added to the lectin solutions. The minimum concentration of product allowing the inhibition of haemagglutination caused by the lectin is measured. […] To carry out the tests, rabbit erythrocytes marketed by the company Biomérieux under the reference 72291 are employed. These erythrocytes are used in 50% suspension in water. The lectin used is Banderia simplicifolia isolectin B4, marketed by the company SYGMA. All the solutions are diluted in phosphate buffer containing calcium and magnesium. The lectin is dissolved in the phosphate buffer at a concentration of 1 mg/ml. 25 μl of phosphate buffer are distributed in all the wells of the microtitre plates. 25 μl of the lectin to be tested are added to the second well. After homogenization, 25 μl from this well are transferred into the following well and so on to obtain successive dilutions. The erythrocytes are diluted to 1/10^e (fresh solution) . 5 μl of the suspension and 5 μl of the contents of a well are placed on a plate. After mixing by rotation, it is observed whether or not there is haemagglutination. The latter develops in 5 min at the maximum. The minimum quantity of lectin is thus measured, which allows a clear erythrocyte haemagglutination to be obtained. After having measured the minimum quantity of lectin which allows a clear erythrocyte haemagglutination to be obtained, it is chosen to work at twice the concentration. 25 μl of phosphate buffer are placed in microtitre plates to carry out a negative control. In the other wells are distributed 25 μl of lectin at the determined concentration. In the second well are added 25 μl of phosphate buffer to obtain a positive control. In the third well are placed 25 μl of the carbohydrate derivative to be tested in solution at a concentration of 0.1M. After homogenization, 25 μl from this well are taken and placed in the following well and so on so as to obtain successive dilutions. After having left the lectin and the carbohydrate derivative in contact for 30 min at ambient temperature, 5 μl are placed on a plate and are mixed with 5 μl of erythrocyte suspension. It is observed whether or not there is haemagglutination after agitation by rotation. The lowest carbohydrate dilution allowing inhibition of haemagglutination to be observed is measured. The result is given as a fraction (corresponding to the dilution) of the initial concentration (0.1M).

Regarding `CCCCCCCC(=O)OC[C@H]1O[C@H](O[C@H]2[C@H](O)[C@@H](O)[C@H](O)O[C@@H]2CO)[C@H](O)[C@@H](O)[C@@H]1O` [6′-O-octanoyl-D-maltose, 6′-O-octanoyl-β-D-maltose], the “lowest carbohydrate dilution allowing inhibition of haemagglutination to be observed, given as a fraction (corresponding to the dilution) of the initial concentration (0.1M)” value is reported as “¼”. In the case of `CC(=O)N[C@H]1C(O)O[C@H](CO)[C@@H](O)[C@@H]1O` (stereo partly drawn) [N-acetyl-D-glucosamine, reference compound] it was “no inhibition observed”; in that of `CCCCCCCCOC(=O)N(C)C[C@H](O)[C@@H](O)[C@H](O)[C@H](O)CO` [N-octyloxycarbonyl-N-methyl-D-glucamine], 1/64.

For the compound “N-2-ethylhexyloxy-carbonyl-N-methyl-D-glucamine”, the “lowest carbohydrate dilution allowing inhibition of haemagglutination to be observed, given as a fraction (corresponding to the dilution) of the initial concentration (0.1M)” value is recorded as 1/16.
